The data set can be described thus: Stability of solutions rendered isotonic (290 mOsmol/kg). In kind it is physicochemical. Conditions: 0.10% octenidine, dihydrochloride. An excerpt: To investigate the stability, aqueous solutions containing 0.1% by weight of octenidine were in each case rendered isotonic (290 mOsmol/kg).

For the compound `CCCCCCCCN=c1ccn(CCCCCCCCCCn2ccc(=NCCCCCCCC)cc2)cc1.Cl.Cl` [Octenidine, Octenidine dihydrochloride], the Stability entry runs as follows: (isotonicity adjusted with 0.85% sodium chloride, listed as octenidine) “not stable”; (isotonicity adjusted with 2.4% glycerol (99.8% strength)) “Stable between +4 °C and +40 °C”; (isotonicity adjusted with 2.4% glycerol (99.8% strength), listed as octenidine) “stable”; (isotonicity adjusted with 99.9% Ringer's solution, listed as octenidine) “not stable”.
